From US20240058450A1, “BCL-XL Inhibitory Compounds Having Low Cell Permeability and Antibody Drug Conjugates Including the Same” (AbbVie Inc., priority 2014, published 2024)
Like-named read-outs stand apart in the source and are kept apart here.

Legend:
Bcl-xL = Bcl-xL (Homo sapiens, UniProt Q07817); assay: Time Resolved-Fluorescence Resonance Energy Transfer (TR-FRET) binding assay, competition with probe F-Bak
Experimental: Tb-anti-GST antibody was purchased from Invitrogen (Catalog No. PV4216).
For the assay, test compounds were serially diluted in DMSO starting at 50 μM (2× starting concentration; 10% DMSO) and 10 μL transferred into a 384-well plate. 10 μL of a protein/probe/antibody mix was then added to each well at final concentrations listed below:
The samples were then mixed on a shaker for 1 minute and incubated for an additional 2 hours at room temperature. For each assay plate, a probe/antibody and protein/antibody/probe mixture were included as a negative and a positive control, respectively. Fluorescence was measured on the Envision (Perkin Elmer) using a 340/35 nm excitation filter and 520/525 (F-Bak) and 495/510 nm (Tb-labeled anti-his antibody) emission filters. Dissociation constants (Ki) were determined using Wang's equation (Wang, 1995, FEBS Lett. 360:111-114). The TR-FRET assay can be performed in the presence of varying concentrations of human serum (HS) or fetal bovine serum (FBS). Compounds were tested both without HS and in the presence of 1% HS.

[1] = test system: Molt-4 human acute lymphoblastic leukemia cells; assay: Molt-4 cell viability assay (CellTiter-Glo, 48 hours, 10% HS); type: cell-based; settings: Homo sapiens, MOLT-4, 48 h, non-permeabilized cells
Experimental: The ability of Bcl-xL inhibitors that are able to traverse cell membranes to inhibit Bcl-xL can be determined in cell-based killing assays using a variety of cell lines and mouse tumor models. For example, their activity on cell viability can be assessed on a panel of cultured tumorigenic and non-tumorigenic cell lines, as well as primary mouse or human cell populations.
In one exemplary set of conditions, Molt-4 (ATCC, Manassas, VA) human acute lymphoblastic leukemia cells were plated 12,500 cells per well in 384-well tissue culture plates (Corning, Corning, NY) in a total volume of 25 μL tissue culture medium supplemented with 10% human serum (Sigma-Aldrich, St. Louis, MO) and treated with a 3-fold serial dilution of the compounds of interest from 10 μM to 0.0005 μM. Each concentration was tested in duplicate at least 3 separate times. The number of viable cells following 48 hours of compound treatment was determined using the CellTiter-Glo®, Luminescent Cell Viability Assay according to the manufacturer's recommendations (Promega Corp., Madison, WI). Compounds were tested in the presence of 10% HS.

[2] = in the presence of 1% HS, read-out: Bcl-xL Binding Ki (nM, 1% HS)
[3] = without HS, read-out: Bcl-xL Binding Ki

Chain of Bcl-xL (Q07817 whole entry): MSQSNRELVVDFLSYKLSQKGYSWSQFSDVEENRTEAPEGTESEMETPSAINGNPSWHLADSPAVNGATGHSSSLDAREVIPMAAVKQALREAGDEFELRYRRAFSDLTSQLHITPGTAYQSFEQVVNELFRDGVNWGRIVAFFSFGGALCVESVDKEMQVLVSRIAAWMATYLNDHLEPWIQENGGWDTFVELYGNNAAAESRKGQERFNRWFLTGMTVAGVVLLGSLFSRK

Ki (Bcl-xL; [2]) | Ki (Bcl-xL; [3]) | EC50 [1] | Compound
2.8 nM | 0.064 nM |  | Cc1c(-c2ccc(N3CCc4cccc(C(=O)Nc5nc6ccccc6s5)c4C3)nc2C(=O)O)cnn1CC12CC3(C)CC(C)(CC(CCCNCCS(=O)(=O)O)(C3)C1)C2 [Example 1.91, 6-{8-[(1,3-benzothiazol-2-yl)carbamoyl]-3,4-dihydroisoquinolin-2 (1H)-yl}-3-{1-[(3,5-dimethyl-7-{3-[(2-sulfoethyl)amino]propyl}tricyclo[3.3.1.1^3,7]decan-1-yl)methyl]-5-methyl-1H-pyrazol-4-yl}pyridine-2-carboxylic acid]
0.3 nM | 0.022 nM | 576 nM | Cc1c(-c2ccc(N3CCc4cccc(C(=O)Nc5nc6ccccc6s5)c4C3)nc2C(=O)O)cnn1CC12CC3(C)CC(C)(C1)CC(OCCN(C)C(=O)[C@@H](N)CC(=O)O)(C3)C2 [Example 1.17, 3-{1-[(3-{2-[L-alpha-aspartyl(methyl)amino]ethoxy}-5,7-dimethyltricyclo[3.3.1.1^3,7]dec-1-yl)methyl]-5-methyl-1H-pyrazol-4-yl}-6-[8-(1,3-benzothiazol-2-ylcarbamoyl)-3,4-dihydroisoquinolin-2 (1H)-yl]pyridine-2-carboxylic acid]
0.12 nM | < 0.001 nM | 184 nM | Cc1c(-c2ccc(N3CCc4cccc(C(=O)Nc5nc6ccccc6s5)c4C3)nc2C(=O)O)cnn1CC12CC3(C)CC(C)(C1)CC(OCCN(CCS(=O)(=O)O)C1CCNCC1)(C3)C2 [Example 1.30, 6-[8-(1,3-benzothiazol-2-ylcarbamoyl)-3,4-dihydroisoquinolin-2 (1H)-yl]-3-{1-[(3,5-dimethyl-7-{2-[piperidin-4-yl(2-sulfoethyl)amino]ethoxy}tricyclo[3.3.1.1^3,7]dec-1-yl)methyl]-5-methyl-1H-pyrazol-4-yl}pyridine-2-carboxylic acid]
0.97 nM | < 0.01 nM |  | Cc1c(-c2ccc(N3CCc4cccc(C(=O)Nc5nc6ccccc6s5)c4C3)nc2C(=O)O)cnn1CC12CC3(C)CC(C)(C1)CC(NC(=O)CNCCS(=O)(=O)O)(C3)C2 [Example 1.89, 6-{8-[(1,3-benzothiazol-2-yl)carbamoyl]-3,4-dihydroisoquinolin-2 (1H)-yl)-3-{1-[(3,5-dimethyl-7-{2-[(2-sulfoethyl)amino]acetamido}tricyclo[3.3.1.1^3,7]decan-1-yl)methyl]-5-methyl-1H-pyrazol-4-yl}pyridine-2-carboxylic acid]
4.2 nM | 0.13 nM |  | Cc1c(-c2ccc(N3CCc4cccc(C(=O)Nc5nc6ccccc6s5)c4C3)nc2C(=O)O)cnn1CC12CC3(C)CC(C)(C1)CC(SCCNCCS(=O)(=O)O)(C3)C2 [Example 1.90, 6-[8-(1,3-benzothiazol-2-ylcarbamoyl)-3,4-dihydroisoquinolin-2 (1H)-yl]-3-(1-{[3,5-dimethyl-7-((2-[(2-sulfoethyl)amino]ethyl)sulfanyl)tricyclo[3.3.1.1^3,7]dec-1-yl]methyl)-5-methyl-1H-pyrazol-4-yl)pyridine-2-carboxylic acid]

The remaining lines, values behind:

Compound | Ki (Bcl-xL; [2]) | Ki (Bcl-xL; [3]) | EC50 [1]
Cc1c(-c2ccc(N3CCc4c(CC5O[C@H](CO)[C@@H](O)[C@H](O)[C@H]5O)ccc(C(=O)Nc5nc6ccccc6s5)c4C3)nc2C(=O)O)cnn1CC12CC3(C)CC(C)(C1)CC(OCCN)(C3)C2 (stereo partly drawn) [Example 1.55, (1ξ)-1-({2-[5-(1-{[3-(2-aminoethoxy)-5,7-dimethyltricyclo[3.3.1.1^3,7]dec-1-yl]methyl}-5-methyl-1H-pyrazol-4-yl)-6-carboxypyridin-2-yl]-8-(1,3-benzothiazol-2-ylcarbamoyl)-1,2,3,4-tetrahydroisoquinolin-5-yl}methyl)-1,5-anhydro-D-glucitol] | 0.039 nM | 0.039 nM | 73 nM
Cc1c(-c2ccc(-c3cnc4cccc(C(=O)Nc5nc6ccccc6s5)c4c3)nc2C(=O)O)cnn1CC12CC3(C)CC(C)(C1)CC(OCCNCCC(=O)O)(C3)C2 [Example 1.71, 6-[5-(1,3-benzothiazol-2-ylcarbamoyl)quinolin-3-yl]-3-{1-[(3-{2-[(2-carboxyethyl)amino]ethoxy}-5,7-dimethyltricyclo[3.3.1.1^3,7]dec-1-yl)methyl]-5-methyl-1H-pyrazol-4-yl}pyridine-2-carboxylic acid] | 0.061 nM | < 0.01 nM | 677 nM
Cc1c(-c2ccc(N3CCc4cccc(C(=O)Nc5nc6ccccc6s5)c4C3)nc2C(=O)O)cnn1CC12CC3(C)CC(C)(C1)CC(OCCN(C)C(=O)[C@@H](N)CCCCN(C)C)(C3)C2 [Example 1.63, 6-[8-(1,3-benzothiazol-2-ylcarbamoyl)-3,4-dihydroisoquinolin-2 (1H)-yl]-3-{1-[(3-{2-[(N′,N′-dimethyl-L-lysyl)(methyl)amino]ethoxy}-5,7-dimethyltricyclo[3.3.1.1^3,7]dec-1-yl)methyl]-5-methyl-1H-pyrazol-4-yl}pyridine-2-carboxylic acid] | < 0.01 nM | < 0.01 nM | 2.22 nM
Cc1c(-c2ccc(-c3ccc4cccc(C(=O)Nc5nc6ccccc6s5)c4c3)nc2C(=O)O)cnn1CC12CC3(C)CC(C)(C1)CC(OCCNCCCS(=O)(=O)O)(C3)C2 [Example 1.35, 6-[8-(1,3-benzothiazol-2-ylcarbamoyl)naphthalen-2-yl]-3-{1-[(3,5-dimethyl-7-{2-[(3-sulfopropyl)amino]ethoxy}tricyclo[3.3.1.1^3,7]dec-1-yl)methyl]-5-methyl-1H-pyrazol-4-yl}pyridine-2-carboxylic acid] | 0.439 nM | < 0.001 nM | 238 nM
Cc1c(-c2ccc(N3CCc4cccc(C(=O)Nc5nc6ccccc6s5)c4C3)nc2C(=O)O)cnn1CC12CC3(C)CC(C)(C1)CC(OCCNCCc1cn([C@@H]4O[C@H](C(=O)O)[C@@H](O)[C@H](O)[C@H]4O)nn1)(C3)C2 [Example 1.9, 8-(1,3-benzothiazol-2-ylcarbamoyl)-2-{6-carboxy-5-[1-({3-[2-({2-[1-(beta-D-glucopyranuronosyl)-1H-1,2,3-triazol-4-yl]ethyl}amino)ethoxy]-5,7-dimethyltricyclo[3.3.1.1^3,7]dec-1-yl}methyl)-5-methyl-1H-pyrazol-4-yl]pyridin-2-yl}-1,2,3,4-tetrahydroisoquinoline] | 0.047 nM | < 0.001 nM | 
CO[C@H]1O[C@@H](Cn2cc(CCCNCCOC34CC5(C)CC(C)(CC(Cn6ncc(-c7ccc(N8CCc9cccc(C(=O)Nc%10nc%11ccccc%11s%10)c9C8)nc7C(=O)O)c6C)(C5)C3)C4)nn2)[C@H](O)[C@@H](O)[C@@H]1O [Example 1.67, methyl 6-[4-(3-{[2-({3-[(4-{6-[8-(1,3-benzothiazol-2-ylcarbamoyl)-3,4-dihydroisoquinolin-2 (1H)-yl]-2-carboxypyridin-3-yl}-5-methyl-1H-pyrazol-1-yl)methyl]-5,7-dimethyltricyclo[3.3.1.1^3,7]dec-1-yl}oxy)ethyl]amino}propyl)-1H-1,2,3-triazol-1-yl]-6-deoxy-beta-L-glucopyranoside] | 0.51 nM | < 0.01 nM | 
Cc1c(-c2ccc(-c3ccc4c(c3)N(C(=O)Nc3nc5ccccc5s3)CCC4)nc2C(=O)O)cnn1CC12CC3(C)CC(C)(C1)CC(OCCN(C)C1CNC1)(C3)C2 [Example 1.65, 3-{1-[(3-{2-[azetidin-3-yl(methyl)amino]ethoxy}-5,7-dimethyltricyclo[3.3.1.1^3,7]dec-1-yl)methyl]-5-methyl-1H-pyrazol-4-yl}-6-[1-(1,3-benzothiazol-2-ylcarbamoyl)-1,2,3,4-tetrahydroquinolin-7-yl]pyridine-2-carboxylic acid] | 0.099 nM | < 0.01 nM | 
